Assays:
[1] = In vitro microsomal metabolic stability, CD-1 mouse liver microsomes; assay type: in vitro ADME; conditions: for Remaining (T = 60 min): with NADPH; for Remaining (T = NCF60 min): without NADPH regenerating system; for Remaining (T = 60 min) / Remaining (T = NCF60 min): 60 min
Experimental: (§1) Buffers: PBK Buffer: 50 mM potassium phosphate buffer (PPB), pH 7.2, with 3.3 mM Magnesium Chloride.
(§2) TA Intermediate solution: Compound or control (3 μL) diluted from stock solution (10 mM) with 297 μL 90.0% methanol/water. (Conc: 100 μM; 1.0% DMSO, 89.1% MeOH).
(§3) Control cocktail intermediate solution: Each control (3 μL) was diluted with 291 μL 90.0% methanol/water.
(§4) Diluted TA intermediate stock solution and PC control stock were made by transferring 80 μL of 100 μM TA stock solution into new tubes and then adding 720 μL of 1.0% DMSO in 50 mM potassium phosphate buffer (conc. 10 μM; 1.0% DMSO, 8.91% MeOH).
(§5) Preparation of Liver microsomes working solution (1.25×)(final Conc.: 0.5 mg/mL).
(§6) Acetonitrile:methanol (9:1, v/v)(including 200 ng/mL tolbutamide and 200 ng/ml labetalol hydrochloride as internal standards).
(§7) Working solution: Intermediate solution (80 μL) was diluted with 720 μL 1.0% DMSO in 50 mM potassium phosphate buffer (Conc.: 10 μM; 1.0% DMSO, 8.91% MeOH)
(§8) Procedure: Stock solution was added to each of the time point plates. Microsomes solution (360 μL/well), TA/PC (45 μL/well), and NADPH (45 μL/well) min. (Conc: 1.0 μM, 0.10% DMSO, 0.891% MeOH) were added to the incubation plates. To the T60 and NCF60 plate, TA (15 ul/well) and Microsomes (120 ul) were added. To the blank plate, microsome (50 ul/well) with stop solution (150 ul/well) were added. At the end of each time point, 50 ul/well was aliquoted from the incubation plate. The sampling plates were shaken for approximately 10 min. on a shaker and the samples were centrifuged at 4000 rpm for 15 min. Supernatant (120 μL) was transferred for LC/MS/MS.Compounds from Table 3 were incubated at 37° C. with liver microsomes (pooled from multiple donors) at 1 μM in the presence of a NADPH regenerating system at 0.5 mg/ml microsomal protein. Positive controls included testosterone (3A4 substrate), propafenone (2D6) and diclofenac (2C9), which were incubated with microsomes in the presence of an NADPH regenerating system. At time points (0, 5, 10, 20, 30 and 60 minutes), samples were removed and immediately mixed with cold acetonitrile containing the internal standard (IS). Test compounds incubated with microsomes without the NADPH regenerating system for 60 min are also included. A single point for each test condition (n=1) was obtained, and samples were analyzed by LC/MS/MS. Disappearance of the test compound was assessed based on peak area ratios of analyte/IS (no standard curve).

[2] = In vitro microsomal metabolic stability, human liver microsomes; assay type: in vitro ADME; conditions: for Remaining (T = 60 min): with NADPH; for Remaining (T = NCF60 min): without NADPH regenerating system; for Remaining (T = 60 min) / Remaining (T = NCF60 min): 60 min
Experimental: as §1, §2, §3, §4, §5, §6, §7, §8

[3] = system: S6K1 (Thr389) phosphorylation (mTORC1 activity) in FKBP12 knock-out 293T cells; assay: Inhibition of S6K1 (Thr389) phosphorylation in FKBP12 knock-out 293T cells (ELISA); assay type: cell-based, human; conditions: for inhibition at 10 µM: Homo sapiens, HEK-293T, 10 μM (highest tested concentration); for selectivity for FKBP12 compared with RAD001 (in words): wild-type versus FKBP12 knock-out cells
Text: Example Generation of FKBP 12 knock-out cells. A CRISPR/Cas9 system was used to deliver ribonucleoprotein complexes containing guide RNA sequences that target FKBP12 (ac[…], location 1369062; ccactactcac[…], location 1369181) in HEK293T cells using Lipofectamine CRISPRMAX transfection reagent (Invitrogen CMAX00008). Cell clones were screened by immunoblotting with anti-FKBP-specific antibody (Novus, NB300-508). Single cells that were deficient for FKBP12 protein were selected and cloned.
(§9) Treatment of wild-type (WT) and FKBP12 knock-out 293T cells with RAD001 (everolimus) and test compounds. WT and FKBP12 knock-out 293T cells were cultured in Dulbecco's modified Eagle's medium (Gibco #11971-025) supplemented with 10% fetal bovine serum (Gibco #26140-079). Cells were plated at a density of 15,000 cells per well in poly-D-Lysine coated 96-well plates (Corning, #354461) and were incubated at 37° C., 5% CO2 for 24 hours until they reached ˜80% confluence. Cells were treated with RAD001 or test compounds reconstituted in dimethyl sulfoxide (DMSO) using a 8-11-point dose range, from 0.001 pM to 10 μM. All treatments were performed in duplicates for 2 hours at 37° C. Cell culture media supplemented with blank dimethyl sulfoxide (DMSO) was used as a negative control for all compounds. Phosphorylated amounts of S6K1 (Thr389) were measured using an ELISA kit (Invitrogen 85-86052-11), following the manufacture's protocol.
(§10) S6K1 is an immediate downstream target of mTORC1 and therefore phosphorylation of S6K1 at Thr389 residue is used to measure mTORC1 activity (PMID: 16968213). Amounts of phosphorylated S6K1 (Thr389) were measured in WT and FKBP12 knock-out 293T cells treated with either RAD001 or Compound 44 (FIGS. 1A and 1B), and Compound 45 (FIGS. 1C and 1D).

[4] = system: S6K1 (Thr389) phosphorylation (mTORC1 activity) in wild-type (WT) 293T cells; assay: Inhibition of S6K1 (Thr389) phosphorylation in wild-type 293T cells (ELISA); assay type: cell-based, human; conditions: for IC50: Homo sapiens, HEK-293T, 2 h, wild-type 293T cells, 2 hours treatment; for fold lower potency compared with RAD001 (by IC50) / extent of inhibition of S6K1 (Thr389) phosphorylation: wild-type cells; for extent of inhibition of S6K1 (Thr389) phosphorylation: with increasing concentrations
Experimental: as §9, §10

[5] = Mouse liver microsomes, 1 μM, 0.5 mg/ml protein, NADPH
[6] = CD-1, mouse, mouse liver microsomes, pH 7.2
[7] = human, human liver microsomes, pH 7.2

| Compound | Remaining (T = 60 min) ([1]; Mouse liver microsomes) | Remaining (T = NCF60 min) ([1]; Mouse liver microsomes) | inhibition at 10 µM ([3]; FKBP12 knock-out cells) | selectivity for FKBP12 compared with RAD001 (in words) [3] | IC50 [4] | fold lower potency compared with RAD001 (by IC50) [4] | extent of inhibition of S6K1 (Thr389) phosphorylation [4] | also measured |
| --- | --- | --- | --- | --- | --- | --- | --- | --- |
| CO[C@H]1C[C@@H]2CC[C@@H](C)[C@@](O)(O2)C(=O)C(=O)N2CCCC[C@H]2C(=O)O[C@H]([C@H](C)C[C@@H]2CC[C@@H](O)[C@H](OC)C2)CC[C@H](C)/C=C(\C)[C@@H](O)[C@@H](OC)C(=O)[C@H](C)C[C@H](C)/C=C/C=C/C=C/1C [32-Deoxo Rapamycin, 32-deoxorapamycin, reference compound] | 36% | 110% |  |  |  |  |  | CL ([1]; Mouse liver microsomes): 35.1 µL/min/mg; CLint ([1]; Mouse liver microsomes): 139 mL/min/kg; T1/2 [1, 5]: 39.5 min; CL ([2]; Human liver microsomes): 405 µL/min/mg; CLint ([2]; Human liver microsomes): 364 mL/min/kg; T1/2 ([2]; Human liver microsomes, 1 μM, 0.5 mg/ml protein, NADPH): 3.4 min; Remaining (T = 60 min) ([2]; Human liver microsomes): 0.00%; Remaining (T = NCF60 min) ([2]; Human liver microsomes): 96% |
| CO[C@@H]1C[C@H](C[C@@H](C)[C@@H]2CC[C@H](C)/C=C(\C)[C@@H](O)[C@@H](OC)C(=O)[C@H](C)C[C@H](C)/C=C/C=C/C=C(\C)C(N(C)c3ccccc3)C[C@@H]3CC[C@@H](C)[C@@](O)(O3)C(=O)C(=O)N3CCCCC3C(=O)O2)CC[C@H]1O (stereo partly drawn) [Compound 63, (3S,6S,7E,9R,10R,12R,14S,15E,17E,19E,23S,26R,27R,34aS)-9,27-dihydroxy-3-((R)-1-((1S,3R,4R)-4-hydroxy-3-methoxycyclohexyl)propan-2-yl)-10-methoxy-6,8,12,14,20,26-hexamethyl-21-(methyl(phenyl)amino)-5,6,9,10,12,13,14,21,22,23,24,25,26,27,32,33,34,34a-octadecahydro-3H-23,27-epoxypyrido[2,1-c][1]oxa[4]azacyclohentriacontine-1,11,28,29(4H,31H)-tetraone] |  |  | 17% | more selective than RAD001 | 2.43 nM | 10 fold | near complete inhibition |  |
| CO[C@@H]1C[C@H](C[C@@H](C)[C@@H]2CC[C@H](C)/C=C(\C)[C@@H](O)[C@@H](OC)C(=O)[C@H](C)C[C@H](C)/C=C/C=C/C=C(\C)C(Nc3ccsc3)C[C@@H]3CC[C@@H](C)[C@@](O)(O3)C(=O)C(=O)N3CCCCC3C(=O)O2)CC[C@H]1O (stereo partly drawn) [Compound 60, (3S,6S,7E,9R,10R,12R,14S,15E,17E,19E,23S,26R,27R,34aS)-9,27-dihydroxy-3-((R)-1-((1S,3R,4R)-4-hydroxy-3-methoxycyclohexyl)propan-2-yl)-10-methoxy-6,8,12,14,20,26-hexamethyl-21-(thiophen-3-ylamino)-5,6,9,10,12,13,14,21,22,23,24,25,26,27,32,33,34,34a-octadecahydro-3H-23,27-epoxypyrido[2,1-c][1]oxa[4]azacyclohentriacontine-1,11,28,29(4H,31H)-tetraone] | 5.6% | 75% |  |  |  |  |  | CLint scaled at 1 µM [1, 6]: 370 mL/min/kg; microsomal CLint at 1 µM [1, 6]: 93.5 µL/min/mg; half-life at 1 µM ([1]; CD-1, pH 7.2, Mouse liver microsomes, 1 μM, 0.5 mg/ml protein, NADPH): 14.8 min; Remaining (T = 60 min) ([2]; Human liver microsomes): 6.6%; Remaining (T = NCF60 min) ([2]; Human liver microsomes): 99%; CLint scaled at 1 µM [2, 7]: 80.4 mL/min/kg; microsomal CLint at 1 µM [2, 7]: 89.3 µL/min/mg; half-life at 1 µM ([2]; pH 7.2, Human liver microsomes, 1 μM, 0.5 mg/ml protein, NADPH): 16 min |
| CO[C@@H]1C[C@H](C[C@@H](C)[C@@H]2CC[C@H](C)/C=C(\C)[C@@H](O)[C@@H](OC)C(=O)[C@H](C)C[C@H](C)/C=C/C=C/C=C(\C)C(Nc3cnccn3)C[C@@H]3CC[C@@H](C)[C@@](O)(O3)C(=O)C(=O)N3CCCCC3C(=O)O2)CC[C@H]1O (stereo partly drawn) [Compound 52] |  |  |  | selective to FKBP12 | 9.15 nM | 25 fold | near complete inhibition | inhibition of S6K1 (Thr389) phosphorylation in the absence of FKBP12 (in words) ([3]; FKBP12 knock-out cells): did not inhibit S6K1 (Thr389)phosphorylation at any tested concentrations |
| CO[C@@H]1C[C@H](C[C@@H](C)[C@@H]2CC[C@H](C)/C=C(\C)[C@@H](O)[C@@H](OC)C(=O)[C@H](C)C[C@H](C)/C=C/C=C/C=C(\C)C(NS(=O)(=O)c3ccccc3)C[C@@H]3CC[C@@H](C)[C@@](O)(O3)C(=O)C(=O)N3CCCC[C@H]3C(=O)O2)CC[C@H]1O (stereo partly drawn) [Compound 16] |  |  | ~70% |  |  | ~28 fold | complete inhibition | inhibition of S6K1 (Thr389) phosphorylation in the absence of FKBP12 (in words) ([3]; FKBP12 knock-out cells): comparable to that of RAD001 |
| COC1C(=O)[C@H](C)C[C@H](C)/C=C/C=C/C=C(\C)C(N(C)S(=O)(=O)c2ccccc2)C[C@@H]2CC[C@@H](C)[C@@](O)(O2)C(=O)C(=O)N2CCCC[C@H]2C(=O)OC([C@H](C)CC2CC[C@@H](O)C(OC)C2)CC[C@H](C)/C=C(\C)C1O (stereo partly drawn) [Compound 73, N-((3S,6S,7E,9R,10R,12R,14S,15E, 17E,19E,23S,26R,27R,34aS)-9,27-dihydroxy-3-((R)-1-((1S,3R,4R)-4-hydroxy-3-methoxycyclohexyl)propan-2-yl)-10-methoxy-6,8,12,14,20,26-hexamethyl-1,11,28,29-tetraoxo-1,4,5,6,9,10,11,12,13,14,21,22,23,24,25,26,27,28,29,31,32,33,34,34a-tetracosahydro-3H-23,27-epoxypyrido[2,1-c][1]oxa[4]azacyclohentriacontin-21-yl)-N-methylbenzenesulfonamide] |  |  | ~60% | not FKBP12 selective | 2.22 nM | 13 fold | near complete inhibition | concentration achieving 20% inhibition of S6K1 (Thr389) phosphorylation ([3]; FKBP12 knock-out cells): 2.7 nM |
| Rapamycin [reference compound] | 27% | 102% |  |  |  |  |  | CL ([1]; Mouse liver microsomes): 43.1 µL/min/mg; CLint ([1]; Mouse liver microsomes): 171 mL/min/kg; T1/2 [1, 5]: 32.1 min |
